The text below walks through data of US4904657A, “4H-quinolizin-4-one compounds exhibiting therapeutic activities” (Kissei Pharmaceutical Co., Ltd., priority 1987, dated 1990).

Each structure is given as a SMILES string.

For test [1], the system named is IgE. Nature of the test: IgE produced in in vitro culture of spleen cells from DNP-As immunized mice (ELISA). The class given is cell-based, BALB/c mice. Particulars: Mus musculus, 96 h, spleen cell culture, 37° C., 4 days; for inhibition at 5 µg/mL: 5 μg/ml; for inhibition at 10 µg/mL: 10 μg/ml; for inhibition at 40 µg/mL: 40 μg/ml; for inhibition at 20 µg/mL: 20 μg/ml; for inhibition at 2.5 µg/mL: 2.5 μg/ml; for inhibition at 1 µg/mL: 1 μg/ml. Here is the method: (§1) Determination of Igs Produced in In Vitro Culture
(§2) BALB/c mice were immunized intraperitoneally with 5 μg of DNP-As adsorbed on 4 mg aluminum hydroxide gel. Four weeks after the immunization, the spleens were excised from the mice and 5×10^7 spleen cells were transferred intravenously into the recipient mice which had been exposed to 600 rad of X-ray irradiation. Immediately after cell transfer, the recipients were then immunized intraperitoneally with 5 μg of DNP-As adsorbed on 4 mg aluminum hydroxide gel to induce adoptive secondary immune response. Further 4 weeks after the immunization of recipients, the spleens were excised from then and the spleen cell suspensions containing 5×10^6 cells/ml were cultured with or without a compound to be tested in 96-well micro-titer plates at 37° C. for 4 days. IgE and IgG secreted into the culture supernatant was each determined correspondingly by ELISA and the inhibitory effect was calculated according to the following equation. [formula]

The subject of test [2] is IgG. Nature of the test: IgG produced in in vitro culture of spleen cells from DNP-As immunized mice (ELISA). Particulars: Mus musculus, 96 h, spleen cell culture, 37° C., 4 days; for inhibition at 5 µg/mL: 5 μg/ml; for inhibition at 10 µg/mL: 10 μg/ml; for inhibition at 40 µg/mL: 40 μg/ml; for inhibition at 20 µg/mL: 20 μg/ml; for inhibition at 2.5 µg/mL: 2.5 μg/ml; for inhibition at 1 µg/mL: 1 μg/ml. The class given is cell-based, BALB/c mice. On the procedure:
as §1, §2
For orientation: In an ELISA, binding on a coated surface is turned into a signal by an enzyme label.

On to `CCOC(=O)c1c(-c2ccccc2)c(C#N)c(=O)n2ccccc12` [Compound S-1, 3-Cyano-1-ethoxycarbonyl-2-phenyl-4H-quinolizin-4-one], for which the inhibition (as a rule, the change of the read-out against control, counted positive when it falls) at 5 µg/mL was found to be 47% in test [1] and 1% in test [2].
With `CCOC(=O)c1c(-c2ccc(Br)cc2)c(C#N)c(=O)n2ccccc12` [Compound S-3, 2-(4-Bromophenyl)-3-cyano-ethoxycarbonyl-4H-quinolizin-4-one], the inhibition at 49 µg/mL in test [1] (49 μg/ml) stood at 34%; in test [2] (49 μg/ml), 15%.
For the compound `CCOC(=O)c1c(-c2ccc(OC)cc2)c(C#N)c(=O)n2ccccc12` [Compound S-6, 3-Cyano-1-ethoxycarbonyl-2-(4-methoxyphenyl)-4-quinolizin-4-one], the figures for the inhibition at 10 µg/mL in test [1] and in test [2] were 65% and 37%, respectively.
As for `CCOC(=O)c1c(-c2ccc3c(c2)OCO3)c(C#N)c(=O)n2ccccc12` [Compound S-8, 3-Cyano-1-ethoxycarbonyl-2-(3,4-methylenedioxyphenyl)-4H-quinolizin-4-one], the values for the inhibition at 40 µg/mL in test [1] and in test [2] were 51% and 5%, respectively.
Take `CCOC(=O)c1c(-c2ccc(Cl)cc2Cl)c(C#N)c(=O)n2ccccc12` [Compound S-9, 3-Cyano-2-(2,4-dichlorophenyl)-1-ethoxycarbonyl-4H-quinolizin-4-one]: the inhibition at 5 µg/mL in test [1] is 64%; in test [2], 32%.
For the compound `CCCOC(=O)c1c(-c2ccccc2)c(C#N)c(=O)n2ccccc12` [Compound S-10, 3-Cyano-2-phenyl-1-propoxycarbonyl-4H-quinolizin-4-one], the values for the inhibition at 10 µg/mL in test [1] and in test [2] were 57% and 22%, respectively.
Consider `COC(=O)c1c(-c2ccccc2)c(C#N)c(=O)n2ccccc12` [Compound S-11, 3-Cyano-1-methoxycarbonyl-2-phenyl-4H-quinolizin-4-one], for which the inhibition at 40 µg/mL was determined as 46% in test [1] and 19% in test [2].
Turning to `CCOC(=O)c1c(-c2ccc(F)cc2)c(C#N)c(=O)n2ccccc12` [Compound S-12, 3-Cyano-1-ethoxycarbonyl-2-(4-fluorophenyl)-4H-quinolizin-4-one], the figures for the inhibition at 20 µg/mL in test [1] and in test [2] were 50% and 8%, respectively.
With `CCOC(=O)c1c(-c2ccc(C)c(F)c2)c(C#N)c(=O)n2ccccc12` [Compound S-13, 3-Cyano-1-ethoxycarbonyl-2-(3-fluoro-4-methylphenyl)-4H-quinolizin-4-one], the inhibition at 40 µg/mL in test [1] was found to be 64%; in test [2], 26%.
In the case of `CCOC(=O)c1c(-c2cc(OC)c(OC)c(OC)c2)c(C#N)c(=O)n2ccccc12` [Compound S-19, 3-Cyano-1-ethoxycarbonyl-2-(3,4,5-trimethoxyphenyl)-4H-quinolizin-4-one], the inhibition at 20 µg/mL worked out at 48% in test [1] and 8% in test [2].
As to `CCOC(=O)c1c(-c2ccc([N+](=O)[O-])cc2)c(C#N)c(=O)n2ccccc12` [Compound S-20, 3-Cyano-1-ethoxycarbonyl-2-(4-nitrophenyl)-4H-quinolizin-4-one], the inhibition at 10 µg/mL in test [1] worked out at 49%; in test [2], 9%.
Take `CCOC(=O)c1c(-c2ccc(SC)cc2)c(C#N)c(=O)n2ccccc12` [Compound S-25, 3-Cyano-1-ethoxycarbonyl-2-(4-methylthiophenyl)-4H-quinolizin-4-one]: the inhibition at 20 µg/mL in test [1] was 61%; in test [2] it was -4%.
As for `CCOC(=O)c1c(-c2cccc(OC)c2OC)c(C#N)c(=O)n2ccccc12` [Compound S-28, 3-Cyano-2-(2,3-dimethoxyphenyl)-1-ethoxycarbonyl-4H-quinolizin-4-one], the values for the inhibition at 2.5 µg/mL in test [1] and in test [2] were 64% and 14%, respectively.
For the compound `CCOC(=O)c1c(-c2cc(OC)cc(OC)c2)c(C#N)c(=O)n2ccccc12` [Compound S-29, 3-Cyano-2-(3,5-dimethoxyphenyl)-1-ethoxycarbonyl-4H-quinolizin-4-one], the inhibition at 40 µg/mL in test [1] stood at 67%; in test [2], 17%.
As for `CCOC(=O)c1c(-c2ccc(O)cc2)c(C#N)c(=O)n2ccccc12` [Compound S-30, 3-Cyano-1-ethoxycarbonyl-2-(4-hydroxyphenyl)-4H-quinolizin-4-one], the inhibition at 40 µg/mL was 43% in test [1] and -20% in test [2].
In the case of `CCOC(=O)c1c(-c2ccc(O)c(O)c2)c(C#N)c(=O)n2ccccc12` [Compound S-31, 3-Cyano-2-(3,4-dihydroxyphenyl)-1-ethoxycarbonyl-4H-quinolizin-4-one], the results for the inhibition at 20 µg/mL in test [1] and in test [2] were 54% and -7%, respectively.
The matching figures for `CCOC(=O)c1c(-c2ccc(O)c(OC)c2)c(C#N)c(=O)n2ccccc12` [Compound S-32, 3-Cyano-1-ethoxycarbonyl-2-(4-hydroxy-3-methoxyphenyl)-4H-quinolizin-4-one]: 53% and -9%.
`CCOC(=O)c1c(-c2ccc(OC)c(O)c2)c(C#N)c(=O)n2ccccc12` [Compound S-33, 3-Cyano-1-ethoxycarbonyl-2-(3-hydroxy-4-methoxyphenyl)-4H-quinolizin-4-one]: the inhibition at 40 µg/mL in test [1] was 58%; in test [2], 5%.
For the compound `CCOC(=O)c1c(N2CCCCC2)c(C#N)c(=O)n2ccccc12` [Compound S-35, 3-Cyano-1-ethoxycarbonyl-2-piperidino-4H-quinolizin-4-one], the figures for the inhibition at 5 µg/mL in test [1] and in test [2] were 30% and 17%, respectively.
For the compound `N#Cc1c(N2CCCCC2)c(C(=O)OCCCc2ccccc2)c2ccccn2c1=O` [Compound S-36, 3-Cyano-1-(3-phenylpropoxycarbonyl)-2-piperidino-4H-quinolizin-4-one], the figures for the inhibition at 5 µg/mL in test [1] and in test [2] were 39% and -4%, respectively.
For the compound `N#Cc1c(N2CCCC2)c(C(=O)OCCCc2ccccc2)c2ccccn2c1=O` [Compound S-38, 3-Cyano-1-(3-phenylpropoxycarbonyl)-2-(1-pyrrolidinyl)-4H-quinolizin-4-one], the inhibition at 1 µg/mL turned out to be 68% in test [1] and 1% in test [2].
With `CCOC(=O)c1c(N2CCN(CCO)CC2)c(C#N)c(=O)n2ccccc12` [Compound S-39, 3-Cyano-1-ethoxycarbonyl-2-[4-(2-hydroxyethyl)-piperazin-1-yl]-4H-quinolizin-4-one], the inhibition at 40 µg/mL in test [1] was found to be 63%; in test [2], 17%.
Take `CCOC(=O)c1c(N2CCN(C=O)CC2)c(C#N)c(=O)n2ccccc12` [Compound S-40, 3-Cyano-1-ethoxycarbonyl-2-(4-formylpiperazin-1-yl)-4H-quinolizin-4-one]: the inhibition at 40 µg/mL in test [1] is 34%; in test [2], 9%.
For `N#Cc1c(N2CCN(C=O)CC2)c(C(=O)OCCCc2ccccc2)c2ccccn2c1=O` [Compound S-41, 3-Cyano-2-(4-formylpiperazin-1-yl)-1-(3-phenylpropoxycarbonyl)-4H-quinolizin-4-one], the inhibition at 2.5 µg/mL in test [1] was found to be 75%; in test [2], 9%.
`CCOC(=O)c1c(N2CCN(C)CC2)c(C#N)c(=O)n2ccccc12` [Compound S-42, 3-Cyano-1-ethoxycarbonyl-2-(4-methylpiperazin-1-yl)-4H-quinolizin-4-one]: the inhibition at 40 µg/mL is 63% in test [1] and 19% in test [2].
On to `CN1CCN(c2c(C#N)c(=O)n3ccccc3c2C(=O)OCCCc2ccccc2)CC1` [Compound S-43, 3-Cyano-2-(4-methylpiperazin-1-yl)-1-(3-phenylpropoxycarbonyl)-4H-quinolizin-4-one], for which the inhibition at 2.5 µg/mL is 65% in test [1] and 1% in test [2].
`N#Cc1c(N2CCC(Cc3ccccc3)CC2)c(C(=O)OCCCc2ccccc2)c2ccccn2c1=O` [Compound S-45, 2-(4-Benzylpiperidino)-3-cyano-1-(3-phenylpropoxycarbonyl)-4H-quinolizin-4-one]: the inhibition at 1 µg/mL in test [1] worked out at 55%; in test [2], 16%.
Turning to `N#Cc1c(N2CCOCC2)c(C(=O)OCCCc2ccccc2)c2ccccn2c1=O` [Compound S-49, 3-Cyano-2-morpholino-1-(3-phenylpropoxycarbonyl)-4H-quinolizin-4-one], the values for the inhibition at 2.5 µg/mL in test [1] and in test [2] were 61% and 21%, respectively.
`N#Cc1c(N2CCN(CCO)CC2)c(C(=O)OCCCc2ccccc2)c2ccccn2c1=O` [Compound S-54, 3-Cyano-2-[4-(2-hydroxyethyl)piperazin-1-yl]-1-(3-phenylpropoxycarbonyl)-4H-quinolizin-4-one]: the inhibition at 5 µg/mL in test [1] was 59%; in test [2] it was 4%.
Turning to `CCOC(=O)c1c(N2CCN(CC(=O)N3CCOCC3)CC2)c(C#N)c(=O)n2ccccc12` [Compound S-55, 3-Cyano-1-ethoxycarbonyl-2-(4-morpholinocarbonylmethylpiperazin-1-yl)-4H-quinolizin-4-one], the inhibition at 40 µg/mL was 36% in test [1] and -4% in test [2].
Regarding `N#Cc1c(N2CCN(CC(=O)N3CCOCC3)CC2)c(C(=O)OCCCc2ccccc2)c2ccccn2c1=O` [Compound S-56, 3-Cyano-2-(4-morpholinocarbonylmethylpiperazin-1-yl)-1-(3-phenylpropoxycarbonyl)-4H-quinolizin-4-one], the inhibition at 2.5 µg/mL in test [1] is 37%; in test [2], 1%.
